From PMC6264310, “Synthesis and Pharmacological Activity of Diterpenylnaphthoquinone Derivatives” (Molecules, 2011) come the findings set out here.

Molecules are shown by their SMILES.

The subject of assay [1] is HCl-EtOH-induced gastric lesions. Put plainly: HCl-EtOH-induced gastric lesion model in mice. Type of assay: in vivo. Particulars: mice, single oral dose of 5 mg/kg; for inhibition in vivo at 5 mg/kg / responders at 5 mg/kg: Mus musculus, 1 h; for inhibition in vivo at 5 mg/kg: read-out: Protection (%); for responders at 5 mg/kg: read-out: Protected stomachs (number of stomachs completely protected from any visible bleeding) (converted). The protocol: 3.5. HCl-EtOH-Induced Ulcer Model in Mice
The gastroprotective activity of the compounds was assessed in the EtOH-HCl-induced gastric lesion model. Male Swiss albino mice weighing 30 ± 3 g were used. The animals were fed on certified Champion diet with free access to water under standard conditions of 12 h dark-light period, 50% relative humidity, and 22 °C room temperature. The mice were randomly distributed into groups of 7–14 animals each and fasted for 24 h with free access to water before the oral administration of test samples by gavage. The purity of the tested compounds was higher than 95% by NMR analysis. To keep the animal numbers to a minimum, dose-response studies were performed with lapachol at 5, 10 and 50 mg/kg to set the conditions for single-dose comparison of gastroprotective effect. The tested compounds, lansoprazole (20 mg/kg) or the vehicle (12% Tween 80, 10 mL/kg) were administered orally by gavage. After 50 min, all groups were orally treated with 0.2 mL of a solution containing 60% EtOH-0.3 M HCl for gastric lesion induction. Animals were sacrificed by cervical dislocation 1 h after the administration of EtOH-HCl, and the stomachs excised and inflated by injection of 5% formalin (1 mL). The ulcerated stomachs were fixed in 5% formalin for 30 min and opened along the greater curvature. The length (mm) of each lesion was measured, and the lesion index expressed as the sum of the length of all lesions. Based on previous studies on the parent diterpenes, comparison of the new compounds 1–12 was carried out at a single oral dose of 5 mg/kg. The protocols were approved by the Universidad de Talca Institutional Animal Care and Use Committee, which follows the recommendations of the Canadian Council on Animal Care. Tween 80 and lansoprazole (>98% purity by HPLC) were purchased from Sigma-Aldrich.
Results were expressed as the mean ± SEM. In all experiments, statistical differences between several treatments and their respective control were determined by one-way ANOVA with Student-Newman-Keuls post-hoc test. The level of significance was set at P < 0.05.

The next assay relates to MRC-5 fibroblasts. Briefly: Basal cytotoxicity, neutral red uptake assay, MRC-5. The format is cell-based. Particulars: Homo sapiens, MRC5, MRC-5, confluent cultures, 24 h, read-out: IC50 ± SEM, Fibroblasts. On the procedure:
(§1) 3.6. Cytotoxicity Assay
(§2) The human cell lines MRC-5 normal lung fibroblasts (ATCC CCL-171), AGS gastric adenocarcinoma cells (ATCC CRL-1739), and Hep G2 hepatocellular carcinoma cells (ATCC HB-8065) were obtained from the American Type Culture Collection (ATCC, Manassas, VA, USA). The cells were grown as monolayers in the following media: MRC-5 and Hep G2 in minimum essential Eagle’s medium (MEM), with Earle’s salts, 2.0 mM L-glutamine (Sigma Chemical Co.) and 2.2 g/L sodium bicarbonate (Sigma Chemical Co.), supplemented with 10% heat-inactivated fetal bovine serum (FBS), 100 IU/mL penicillin, and 100 µg/mL streptomycin in a humidified incubator with 5% CO2 in air at 37 °C. Cell passage was maintained between 10 and 16 for MRC-5 and between 79 and 82 for Hep G2 cells. The medium was changed every 2 days. Culture media, antibiotics, and FBS were obtained from Invitrogen Corp. Human gastric adenocarcinoma cells AGS (ATCC CRL-1739) were grown as monolayers in Ham F-12 medium containing 1.0 mM L-glutamine and 1.5 g/L sodium bicarbonate, supplemented with 10% heat-inactivated FBS, 100 IU/mL penicillin, and 100 µg/mL streptomycin in a humidified incubator with 5% CO2 in air at 37 °C. Cell passage was maintained between 42 and 48. The medium was changed every 2 days.
(§3) Confluent cultures of the different cell lines were treated with medium containing the compounds at concentrations ranging from 1 up to 1,000 µM. The antisecretory drug lansoprazole was used as reference compound. The substances were first dissolved in DMSO and then in the corresponding culture medium supplemented with 2% FBS. The final concentration of DMSO in the test medium and controls was 1%. The cells were exposed for 24 h to test medium with or without the compound (control). Each concentration was tested in quadruplicate together with the control and repeated three times in separate experiments. At the end of the incubation the neutral red uptake assay was performed.

A further assay relates to AGS cells. Briefly: Basal cytotoxicity, neutral red uptake assay, AGS. The format is cell-based. Particulars: Homo sapiens, confluent cultures, 24 h, read-out: IC50 ± SEM, AGS. On the procedure:
as §1, §2, §3

Another assay relates to Hep G2 cells. Briefly: Basal cytotoxicity, neutral red uptake assay, Hep G2. Type of assay: cell-based. Particulars: Homo sapiens, HepG2, Hep G2, confluent cultures, 24 h, read-out: IC50 ± SEM, Hep G2. The protocol: as §1, §2, §3

A word on the IC50: it is the midpoint of a concentration-inhibition curve. With `C=C1CCC2[C@](C)(CCC[C@]2(C)C(=O)O)[C@H]1CC[C@@H](C)CC(=O)OC1=C(CC=C(C)C)C(=O)c2ccccc2C1=O` (stereo partly drawn) [Compound 1, Lapachoyl junicedrate], in assay [1], the inhibition in vivo at 5 mg/kg is 44%. For the same molecule, the “Lesion index (mm) Mean ± SEM” value in assay [1] is listed as 15.3 ± 5.0 mm. For the same molecule, the IC50 is 210 ± 13 µM in the assay with MRC-5 fibroblasts, 170 ± 9 µM in the assay with AGS cells and 57.4 ± 4.4 µM in the assay with Hep G2 cells.

Take `C=C1CCC2[C@](C)(CCC[C@]2(C)C(=O)OC)[C@H]1CC[C@@H](C)CC(=O)OC1=C(CC=C(C)C)C(=O)c2ccccc2C1=O` (stereo partly drawn) [Compound 2, Lapachoyl junicedrate methyl ester]: in assay [1], the responders at 5 mg/kg was 44.4%, the inhibition in vivo at 5 mg/kg was determined as 65% and the “Lesion index (mm) Mean ± SEM” value amounted to 8.7 ± 3.9 mm. Moreover, in the assay with MRC-5 fibroblasts, the IC50 stood at 741 ± 40 µM. Further, the IC50 in the assay with AGS cells turned out to be 361 ± 19 µM. The IC50 in the assay with Hep G2 cells is 208 ± 11 µM.

`C=C1CCC2[C@](C)(CCC[C@]2(C)C(=O)O)[C@H]1CC[C@@H](C)CC(=O)OC1=C(CCC(C)C)C(=O)c2ccccc2C1=O` (stereo partly drawn) [Compound 3, Dihydroprenyl lapachoyl junicedrate]: in assay [1], the responders at 5 mg/kg was 0%, the inhibition in vivo at 5 mg/kg was 59% and the “Lesion index (mm) Mean ± SEM” value stood at 17.9 ± 4.6 mm. In addition, the IC50 in the assay on MRC-5 fibroblasts came out at 156 ± 9 µM. Besides, the IC50 in the assay on AGS cells amounted to 89 ± 5 µM. Further, the IC50 with Hep G2 cells was above 1000 µM.

For the molecule `C=C1CCC2[C@](C)(CCC[C@]2(C)C(=O)OC)[C@H]1CC[C@@H](C)CC(=O)OC1=C(CCC(C)C)C(=O)c2ccccc2C1=O` (stereo partly drawn) [Compound 4, Dihydroprenyl lapachoyl junicedrate methyl ester], in assay [1], the responders at 5 mg/kg is 0%, the inhibition in vivo at 5 mg/kg is 55% and the “Lesion index (mm) Mean ± SEM” value was 19.3 ± 5.0 mm. Besides, in the assay on MRC-5 fibroblasts, the IC50 was above 1000 µM. Further, the IC50 with AGS cells was determined as 382 ± 26 µM. Besides, the IC50 with Hep G2 cells was above 1000 µM.

As for `C=C1CCC2[C@](C)(CCC[C@]2(C)C(=O)O)[C@H]1CC[C@@H](C)CC(=O)OC1=C(CCC(C)C)C(=O)C2=C(CCCC2)C1=O` (stereo partly drawn) [Compound 5, Dihydroprenyl-5,6,7,8-tetrahydrolapachoyl junicedrate], in assay [1], the responders at 5 mg/kg was 0%, the inhibition in vivo at 5 mg/kg amounted to 18% and the “Lesion index (mm) Mean ± SEM” value came out at 20.4 ± 3.6 mm. Also, the IC50 in the assay with MRC-5 fibroblasts was found to be 69 ± 3 µM. Also, the concentration for half-maximal inhibition (IC50) in the assay on AGS cells was 40 ± 6 µM. For the same molecule, the concentration for half-maximal inhibition (IC50) with Hep G2 cells came to 27 ± 1 µM.

With `CC(C)=CCC1=C(OC(=O)C[C@H](C)CCC2=C(C)CCC3[C@@](C)(C(=O)O)CCC[C@]23C)C(=O)c2ccccc2C1=O` (stereo partly drawn) [Compound 7, Lapachoyl Δ8(9) junicedrate], in assay [1], the responders at 5 mg/kg is 12.5%, the inhibition in vivo at 5 mg/kg is 54% and the “Lesion index (mm) Mean ± SEM” value was determined as 11.5 ± 4.4 mm. For the same molecule, the IC50 with MRC-5 fibroblasts came out at 190 ± 8 µM. For the same molecule, the IC50 with AGS cells was found to be 179 ± 9 µM. For the same molecule, the IC50 with Hep G2 cells was found to be 96 ± 9 µM.

For `COC(=O)[C@@]1(C)CCC[C@]2(C)C(CC[C@@H](C)CC(=O)OC3=C(CC=C(C)C)C(=O)c4ccccc4C3=O)=C(C)CCC12` (stereo partly drawn) [Compound 8, Lapachoyl Δ8(9) junicedrate methyl ester], in assay [1], the responders at 5 mg/kg is 55.6%, the inhibition in vivo at 5 mg/kg was determined as 84% and the “Lesion index (mm) Mean ± SEM” value was 3.9 ± 1.9 mm. For the same molecule, the IC50 with MRC-5 fibroblasts is above 1000 µM. Besides, the IC50 in the assay with AGS cells came out at 721 ± 35 µM. Further, the IC50 in the assay on Hep G2 cells was 379 ± 21 µM.

As for `COc1cc([C@@H]2c3cc4c(cc3[C@@H](O[C@@H]3O[C@@H]5CO[C@@H](C)O[C@H]5[C@H](O)[C@H]3O)[C@H]3COC(=O)[C@H]23)OCO4)cc(OC)c1O` [Etoposide, reference compound], in the assay with AGS cells, the IC50 was 0.58 ± 0.02 µM.

With `C=C1CCC2[C@](C)(CCC[C@]2(C)C(=O)O)[C@H]1CC[C@@H](C)CC(=O)O` (stereo partly drawn) [Junicedric acid (I), junicedric acid, reference compound], the results for the IC50 with MRC-5 fibroblasts, in the assay on AGS cells and in the assay on Hep G2 cells were 181 ± 9 µM, 304 ± 18 µM and above 1000 µM, respectively.
